According to US20050118224A1, “Edible pesticidal formulations” (priority 2001, published 2005):

Test: Chlorpyrifos loss from liquid blends with oleophilic phase candidates, 70° C. for 70 h
Type: physicochemical
Conditions: 1.2 g chlorpyrifos in 9 g candidate, on aluminium foil
Procedure: 1.2 g of chlorpyrifos was added to 9 g of each alternative oleophilic candidate (see Table 14). 1.02 g of this liquid blend was then placed onto aluminium foil within a glass Petrie dish. The control was molten chlorpyrifos alone. Samples were then placed in a fan forced oven at 70° C. for 70 h before being removed and analysed for chlorpyrifos content.

CCOP(=S)(OCC)Oc1nc(Cl)c(Cl)cc1Cl [No oleophilic phase, chlorpyrifos]
Chlorpyrifos loss (%): 37%
